How the values were obtained:
JAK1 = JAK1 (Homo sapiens (Human), UniProt P23458); assay: Biochemical JAK and Tyk2 kinase assays (LanthaScreen): JAK1; details: 1 h pre-incubation, ATP at Km; pIC50 converted to pKi by Cheng-Prusoff
Procedure, shortened: (§1)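 Compound, GST-tagged JAK enzyme and GFP-labelled STAT1 peptide were first incubated together for 1 h at ambient temperature. ATP then started a 1 h reaction, which was stopped with EDTA and Tb-labelled anti-pSTAT1 (pTyr701) antibody. After 1 h, the 520/495 nm emission ratio gave percent inhibition; Ki derived by Cheng-Prusoff.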

JAK2 = JAK2 (Homo sapiens (Human), UniProt O60674); assay: Biochemical JAK and Tyk2 kinase assays (LanthaScreen): JAK2; details: 1 h pre-incubation, ATP at Km, pIC50 converted to pKi by Cheng-Prusoff; for Ki: read-out: JAK 2 (pKi) (converted)
JAK2, sequence (O60674 whole entry): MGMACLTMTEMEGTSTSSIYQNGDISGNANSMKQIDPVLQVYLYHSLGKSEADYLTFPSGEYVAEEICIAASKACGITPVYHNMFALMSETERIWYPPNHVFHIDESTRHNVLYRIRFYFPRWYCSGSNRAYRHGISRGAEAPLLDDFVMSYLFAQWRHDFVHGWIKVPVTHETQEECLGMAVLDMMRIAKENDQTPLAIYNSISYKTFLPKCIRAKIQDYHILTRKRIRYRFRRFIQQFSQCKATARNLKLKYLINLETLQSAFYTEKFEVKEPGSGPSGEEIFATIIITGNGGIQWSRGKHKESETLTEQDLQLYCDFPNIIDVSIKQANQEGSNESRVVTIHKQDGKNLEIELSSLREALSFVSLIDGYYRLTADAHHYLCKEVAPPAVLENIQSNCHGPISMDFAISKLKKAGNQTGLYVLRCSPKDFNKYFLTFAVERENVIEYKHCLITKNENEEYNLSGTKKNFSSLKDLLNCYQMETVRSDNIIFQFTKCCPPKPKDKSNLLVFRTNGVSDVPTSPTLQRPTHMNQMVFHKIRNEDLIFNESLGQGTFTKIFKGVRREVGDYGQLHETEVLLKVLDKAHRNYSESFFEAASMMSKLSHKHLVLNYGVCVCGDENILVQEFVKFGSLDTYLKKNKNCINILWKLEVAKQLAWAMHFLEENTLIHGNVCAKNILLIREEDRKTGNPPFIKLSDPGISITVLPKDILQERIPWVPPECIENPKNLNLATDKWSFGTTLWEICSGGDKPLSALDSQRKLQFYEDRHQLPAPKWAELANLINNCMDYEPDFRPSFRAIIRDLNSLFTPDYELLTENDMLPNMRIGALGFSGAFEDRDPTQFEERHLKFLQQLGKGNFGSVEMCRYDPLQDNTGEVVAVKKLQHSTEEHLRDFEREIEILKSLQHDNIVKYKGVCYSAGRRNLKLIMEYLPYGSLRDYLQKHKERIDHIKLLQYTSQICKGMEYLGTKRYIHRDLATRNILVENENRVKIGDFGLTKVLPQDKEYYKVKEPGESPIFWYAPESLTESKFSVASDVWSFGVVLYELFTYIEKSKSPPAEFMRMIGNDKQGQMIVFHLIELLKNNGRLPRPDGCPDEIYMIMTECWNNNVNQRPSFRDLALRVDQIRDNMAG
Procedure, shortened: as §1

JAK3 = JAK3 (Homo sapiens (Human), UniProt P52333); assay: Biochemical JAK and Tyk2 kinase assays (LanthaScreen): JAK3; details: for JAK 3 (pKi) / Ki: 1 h pre-incubation, ATP at Km, pIC50 converted to pKi by Cheng-Prusoff; for JAK3 (pKi)-JAK1 (pKi): difference of pKi values, selectivity JAK3 over JAK1; for Ki: read-out: JAK 3 (pKi) (converted)
JAK3, sequence (P52333 whole entry): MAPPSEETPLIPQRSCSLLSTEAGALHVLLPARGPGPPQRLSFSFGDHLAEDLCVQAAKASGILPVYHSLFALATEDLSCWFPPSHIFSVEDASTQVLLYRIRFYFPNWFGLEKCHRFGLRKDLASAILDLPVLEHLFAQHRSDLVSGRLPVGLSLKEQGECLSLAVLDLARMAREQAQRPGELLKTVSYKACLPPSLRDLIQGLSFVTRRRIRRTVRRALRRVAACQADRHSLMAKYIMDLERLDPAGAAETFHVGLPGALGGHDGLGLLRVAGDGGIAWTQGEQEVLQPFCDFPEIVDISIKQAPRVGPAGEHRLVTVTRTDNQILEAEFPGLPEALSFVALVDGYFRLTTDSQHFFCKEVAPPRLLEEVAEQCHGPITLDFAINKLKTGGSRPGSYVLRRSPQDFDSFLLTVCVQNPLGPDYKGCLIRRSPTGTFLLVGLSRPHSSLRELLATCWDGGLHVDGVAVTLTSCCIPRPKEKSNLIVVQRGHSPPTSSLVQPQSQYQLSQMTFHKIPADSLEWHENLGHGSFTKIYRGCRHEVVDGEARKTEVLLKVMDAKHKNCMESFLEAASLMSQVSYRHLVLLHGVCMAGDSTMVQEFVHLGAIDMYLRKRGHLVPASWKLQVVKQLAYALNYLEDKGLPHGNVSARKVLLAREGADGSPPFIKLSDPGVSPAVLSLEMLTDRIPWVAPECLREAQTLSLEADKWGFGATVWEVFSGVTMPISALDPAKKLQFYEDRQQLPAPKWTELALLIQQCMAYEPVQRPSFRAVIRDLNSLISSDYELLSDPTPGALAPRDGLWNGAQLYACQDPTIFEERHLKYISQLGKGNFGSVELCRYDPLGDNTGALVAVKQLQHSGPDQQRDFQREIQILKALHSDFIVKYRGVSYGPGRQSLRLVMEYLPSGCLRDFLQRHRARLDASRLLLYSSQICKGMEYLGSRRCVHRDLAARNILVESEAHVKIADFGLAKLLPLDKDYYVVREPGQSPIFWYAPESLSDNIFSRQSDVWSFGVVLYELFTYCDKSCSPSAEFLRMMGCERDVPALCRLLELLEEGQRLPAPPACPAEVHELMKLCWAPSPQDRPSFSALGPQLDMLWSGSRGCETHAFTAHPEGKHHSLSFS
Procedure, shortened: as §1

Tyk2 = Tyk2 (Homo sapiens (Human), UniProt P29597); assay: Biochemical JAK and Tyk2 kinase assays (LanthaScreen): Tyk2; details: 1 h pre-incubation, ATP at Km; pIC50 converted to pKi by Cheng-Prusoff
Tyk2, sequence (P29597 whole entry): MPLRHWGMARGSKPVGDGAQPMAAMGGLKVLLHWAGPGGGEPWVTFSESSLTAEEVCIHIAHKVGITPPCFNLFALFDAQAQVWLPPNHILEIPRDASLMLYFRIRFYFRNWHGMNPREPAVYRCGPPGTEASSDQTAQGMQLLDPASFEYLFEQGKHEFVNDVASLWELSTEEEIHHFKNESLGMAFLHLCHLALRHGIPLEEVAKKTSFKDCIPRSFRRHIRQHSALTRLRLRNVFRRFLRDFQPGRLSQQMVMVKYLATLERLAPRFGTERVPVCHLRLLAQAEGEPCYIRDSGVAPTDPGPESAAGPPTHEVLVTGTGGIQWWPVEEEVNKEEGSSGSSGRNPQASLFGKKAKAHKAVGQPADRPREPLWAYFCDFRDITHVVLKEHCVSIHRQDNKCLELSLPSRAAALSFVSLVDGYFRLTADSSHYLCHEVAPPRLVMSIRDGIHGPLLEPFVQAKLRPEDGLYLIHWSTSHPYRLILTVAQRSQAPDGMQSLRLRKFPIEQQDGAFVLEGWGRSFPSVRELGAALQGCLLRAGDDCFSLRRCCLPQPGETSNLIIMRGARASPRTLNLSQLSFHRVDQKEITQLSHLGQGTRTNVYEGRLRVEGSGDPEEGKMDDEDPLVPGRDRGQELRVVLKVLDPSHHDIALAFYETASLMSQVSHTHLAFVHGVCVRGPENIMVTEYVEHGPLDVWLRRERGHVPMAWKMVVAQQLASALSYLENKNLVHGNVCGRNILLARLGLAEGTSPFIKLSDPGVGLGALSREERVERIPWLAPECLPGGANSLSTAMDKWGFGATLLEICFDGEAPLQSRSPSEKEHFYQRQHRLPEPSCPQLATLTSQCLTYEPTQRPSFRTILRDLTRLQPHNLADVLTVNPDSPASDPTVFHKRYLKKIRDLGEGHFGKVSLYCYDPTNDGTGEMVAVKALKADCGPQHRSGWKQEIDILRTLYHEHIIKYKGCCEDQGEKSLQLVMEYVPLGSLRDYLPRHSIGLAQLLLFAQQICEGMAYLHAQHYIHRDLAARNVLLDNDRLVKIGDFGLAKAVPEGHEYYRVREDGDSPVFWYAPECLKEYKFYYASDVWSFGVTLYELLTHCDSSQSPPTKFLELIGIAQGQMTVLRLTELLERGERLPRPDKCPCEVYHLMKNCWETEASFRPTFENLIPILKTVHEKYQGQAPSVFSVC
Procedure, shortened: as §1

[1] = test system: IL-2 stimulated pSTAT5 in Tall-1 T cells (JAK3); assay: Cellular JAK3 potency assay: inhibition of IL-2 stimulated pSTAT5 in Tall-1 T cells; type: cell-based; details: IL-2 300 ng/ml, pSTAT5 AlphaLisa, Tall-1 human T cell line; read-out: Tall-1 (pIC50) (converted)
Procedure, shortened: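 Human Tall-1 T cells (45,000/well) preincubated with compound 1 h at 37 °C, then stimulated with IL-2 (final 300 ng/ml) for 30 min. Lysates read for pSTAT5 (Tyr694/699) by AlphaLISA luminescence. IC50 from signal-versus-concentration curves, reported as pIC50 (mean±SD).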

[2] = test system: IL-2 stimulated pSTAT5 in CD4+ T cells isolated from murine splenocytes (JAK3); assay: Inhibition of IL-2 stimulated pSTAT5 in CD4+ T cells isolated from murine splenocytes; type: cell-based; details: Mus musculus, IL-2 7 ng/ml, read-out: pIC50, inhibition of IL-2 stimulated pSTAT5 (converted)
Method: Assay 3: Inhibition of IL-2 Stimulated pSTAT5 in CD4+ T Cells Isolated from Murine Splenocytes
The potency of test compounds for inhibition of interleukin-2 (IL-2) stimulated STATS phosphorylation was measured in the CD4+ T cells isolated from murine splenocytes using AlphaLisa. Because IL-2 signals through JAK3, this assay provides a measure of JAK3 cellular potency in mouse.
Phosphorylated STATS was measured via the AlphaLISA SureFire Ultra pSTAT5 (Tyr694/699) kit (PerkinElmer).
CD4+ T cells were isolated from murine splenocytes via negative selection on a magnetic column (Miltnyi Biotec) and re-suspended in assay media (phenol red-free DMEM (Life Technologies) supplemented with 10% FBS (ATCC)). Cells were seeded at 50,000 cells/well in assay media (2 μL/well). Compounds were serially diluted in DMSO and diluted to 2× final concentration in assay media. Compound was added (4 μl/well) and the cells incubated at 37° C., 5% CO2 for 1 hour, followed by the addition of IL-2 (R&D Systems; final concentration 7 ng/ml) in pre-warmed assay media (2 μL) for 30 minutes. After cytokine stimulation, cells were lysed with 2 μl of 5× AlphaLisa Lysis Buffer (PerkinElmer). The lysate was shaken at 900 rpm for 10 minutes at room temperature (RT). Phosphorylated STATS was measured via the pSTAT5 AlphaLisa kit (PerkinElmer). Freshly prepared acceptor bead mixture was dispensed onto lysate (5 ul) under green filtered <100 lux light. Plates were shaken at 900 rpm for 2 mins, briefly spun down, and incubated for 2 hrs at RT in the dark. Donor beads were dispensed (5 μl) under green filtered <100 lux light. Plates were shaken at 900 rpm for 2 mins, briefly spun down, and incubated overnight at RT in the dark. Luminescence was measured with excitation at 689 nm and emission at 570 nm using an EnVision plate reader (PerkinElmer) under green filtered <100 lux light.
To determine the inhibitory potency of test compounds in response to IL-2, the average emission intensity of beads bound to pSTATS was measured in primary CD4+ T cells isolated from murine splenocytes. IC50 values were determined from analysis of the inhibition curves of signal intensity vs compound concentration. Data are expressed as pIC50 (negative decadic logarithm IC50) values (mean±standard deviation).

[3] = Colon and plasma mouse pharmacokinetics; type: in vivo; details: ratio of colon AUC to plasma AUC, male Balb/c mice, 10 mg/kg PO; for Kp: mouse
Method: Assay 6: Colon and Plasma Mouse Pharmacokinetics
6 male Balb/c mice were administered 10 mg/kg of compound in 1% HPMC+0.1% Tween-80 by PO administration. At 0.5, 2 and 6 hours after dose administration, animals were anesthetized, and terminal blood samples were collected by cardiac puncture, followed by collection of colon contents and colon tissue.
Blood samples were collected into K2EDTA and stored on wet ice until processed to plasma by centrifugation (12,000 rpm at 4° C.). Plasma samples were transferred to cluster tubes and placed on dry ice prior to freezer storage. The colon contents from each animal were collected at each terminal blood collection time point. The colon tissues were flushed with saline and patted dry. The colon and colon content tissues were homogenized using sterile water containing 0.1% formic acid 9:1 (water:tissue, v/w). The homogenized tissues and colon contents were transferred to cluster tubes and placed on dry ice prior to freezer storage. All samples were analyzed using LC/MS/MS against analytical standards.
The composite pharmacokinetic parameters of the compounds were determined by non-compartmental analysis using Phoenix WinNonlin Version 6 (Certara, St. Louis, Mo.) and using mean values from 2 animals/time point. For plasma concentrations below the quantification limit (BQL), the lowest concentration measurable or the BLOQ (below limit of quantification) was used.
A colon to plasma ratio was determined as the ratio of the colon AUC to the plasma AUC.

Caco-2 cell monolayers = assay: Caco-2 permeation assay; type: in vitro ADME, human; details: for Caco Kp 10^−6 cm/sec: 5 μM, A to B, + Verapamil 25 μM, 120 minutes
Source text: Assay 5: Caco-2 Permeation Assay

JAK1, sequence (P23458 whole entry): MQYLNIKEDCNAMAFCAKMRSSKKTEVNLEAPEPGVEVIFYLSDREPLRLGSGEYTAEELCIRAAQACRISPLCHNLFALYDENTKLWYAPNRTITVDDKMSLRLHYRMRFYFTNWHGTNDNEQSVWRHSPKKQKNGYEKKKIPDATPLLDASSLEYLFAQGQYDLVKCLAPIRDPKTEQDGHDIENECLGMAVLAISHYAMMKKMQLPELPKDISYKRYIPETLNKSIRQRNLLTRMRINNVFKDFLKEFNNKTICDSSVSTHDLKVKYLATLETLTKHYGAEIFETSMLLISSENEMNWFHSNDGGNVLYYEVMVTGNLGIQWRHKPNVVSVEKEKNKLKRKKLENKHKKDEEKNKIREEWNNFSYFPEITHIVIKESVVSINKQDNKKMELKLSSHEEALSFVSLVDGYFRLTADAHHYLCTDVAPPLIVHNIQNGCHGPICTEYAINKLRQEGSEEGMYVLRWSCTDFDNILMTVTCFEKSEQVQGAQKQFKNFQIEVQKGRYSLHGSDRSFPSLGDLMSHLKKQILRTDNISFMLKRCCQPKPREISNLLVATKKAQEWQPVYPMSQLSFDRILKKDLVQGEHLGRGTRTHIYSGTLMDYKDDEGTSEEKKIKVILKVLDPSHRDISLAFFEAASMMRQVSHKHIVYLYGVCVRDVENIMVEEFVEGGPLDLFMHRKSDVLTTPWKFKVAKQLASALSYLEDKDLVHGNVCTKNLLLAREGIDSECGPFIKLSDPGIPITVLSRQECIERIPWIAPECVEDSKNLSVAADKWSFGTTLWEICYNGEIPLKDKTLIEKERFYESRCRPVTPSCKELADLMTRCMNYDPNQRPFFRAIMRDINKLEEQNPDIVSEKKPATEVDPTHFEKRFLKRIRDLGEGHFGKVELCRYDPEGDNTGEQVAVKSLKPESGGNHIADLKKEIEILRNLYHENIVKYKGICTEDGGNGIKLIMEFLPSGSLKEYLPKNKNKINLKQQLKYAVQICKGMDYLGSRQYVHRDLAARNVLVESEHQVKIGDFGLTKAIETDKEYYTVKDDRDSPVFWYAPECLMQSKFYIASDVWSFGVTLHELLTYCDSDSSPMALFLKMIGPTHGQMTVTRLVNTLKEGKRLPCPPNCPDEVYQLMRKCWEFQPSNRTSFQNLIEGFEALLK

Row | Compound | JAK 1 (pKi) (JAK1) | Ki (JAK2) [nM] | JAK 3 (pKi) (JAK3) | JAK3 (pKi)-JAK1 (pKi) (JAK3) | Tyk 2 (pKi) (Tyk2) | IC50 [1] [nM] | IC50 [2] [nM] | Kp [3] | Ki (JAK1) [nM] | Ki (JAK3) [nM] | Caco Kp 10^−6 cm/sec (Caco-2 cell monolayers) | JAK 2 (pKi) (JAK2) | Kp value (Caco-2 cell monolayers; A to B + Verapamil, unit not given, thresholds in same block in 10^−6 cm/sec) | colon to plasma ratio [3]
1 | C=CC(=O)N1CC[C@@H](Oc2cc(-c3ccc(O)cc3)cn3cncc23)C[C@H]1C [Example 15, 1-((2R,4R)-4-((6-(4-hydroxyphenyl)imidazo[1,5-a]pyridin-8-yl)oxy)-2-methylpiperidin-1-yl)prop-2-en-1-one] | E (E represents a pKi value of 7 or below (Ki of 100 nM or above)) | 10 to 100 | A (A represents a pKi value≥10 (Ki≤0.1 nM)) | A (A represents a value of 3 or above) | E (E represents a pKi value of 7 or below (Ki of 100 nM or above)) | ≤ 31.6 | < 1000 | > 30 | – | – | – | – | – | –
2 | C=CC(=O)N1CCC[C@H](Oc2cc(-c3cc(F)c(O)cc3CC)cn3cncc23)C1 [Example 16] | – | 10 to 100 | – | B (B represents a value of 2.3 to 3) | E (E represents a pKi value of 7 or below (Ki of 100 nM or above)) | 31.6 to 200 | – | > 200 | 10 to 100 | 0.1 to 1 | C (C represents a value between 10×10^−6 and 25×10^−6 cm/sec) | – | – | –
3 | CCc1cc(O)c(F)cc1-c1cc(OCC2CN(C(=O)/C=C/CN(C)C)C2)c2cncn2c1 [Example 24] | E (E represents a pKi value of 7 or below (Ki of 100 nM or above)) | – | A (A represents a pKi value≥10 (Ki≤0.1 nM)) | A (A represents a value of 3 or above) | E (E represents a pKi value of 7 or below (Ki of 100 nM or above)) | 31.6 to 200 | < 1000 | > 200 | – | – | A (A represents a value below 5×10^−6 cm/sec) | E (E represents a pKi value of 7 or below (Ki of 100 nM or above)) | – | –
4 | C=CC(=O)N1CCC(Oc2cc(-c3ccc(O)cc3)cn3cncc23)CC1 [Example 30] | E (E represents a pKi value of 7 or below (Ki of 100 nM or above)) | – | A (A represents a pKi value≥10 (Ki≤0.1 nM)) | A (A represents a value of 3 or above) | E (E represents a pKi value of 7 or below (Ki of 100 nM or above)) | 31.6 to 200 | – | > 8 | – | – | C (C represents a value between 10×10^−6 and 25×10^−6 cm/sec) | E (E represents a pKi value of 7 or below (Ki of 100 nM or above)) | – | –
5 | C=CC(=O)N1CC(COc2cc(-c3ccc(O)c(C)c3)cn3cncc23)C1 [Example 34] | E (E represents a pKi value of 7 or below (Ki of 100 nM or above)) | – | – | A (A represents a value of 3 or above) | E (E represents a pKi value of 7 or below (Ki of 100 nM or above)) | 31.6 to 200 | < 1000 | – | – | 0.1 to 1 | B (B represents a value between 5×10^−6 and 10×10^−6 cm/sec) | E (E represents a pKi value of 7 or below (Ki of 100 nM or above)) | – | –
6 | C=CC(=O)N1C[C@H](Nc2ncnc3[nH]ccc23)CC[C@@H]1C [PF-06651600, 2-propen-1-one, 1-[(2S,5R)-2-methyl-5-(7H-pyrrolo[2,3-d]pyrimidin-4-ylamino)-1-piperidinyl], reference compound] | – | – | – | – | – | – | – | – | – | – | – | – | 25 | 2.8
